Our source for the Activity, MIC and zone of inhibition values is ChEMBL document CHEMBL1158340, “Organoiodine (III)-mediated synthesis of 3-aryl/heteroaryl-5,7-dimethyl-1,2,4-triazolo[4,3-c]pyrimidines as antibacterial agents” (2009).

The structures appear in SMILES notation. ≈ marks a conversion by molar mass, not a printed value. Calls of active or inactive are those of the source. The calls are words filed in the database; no cut-off is given here. Some results are limits rather than exact numbers.

Holding throughout (type): functional
Assay [1] concerns Bacillus subtilis. Kind of assay: Antibacterial activity against Bacillus subtilis MTCC 8509 at 10 ug/mL by agar well diffusion method. Particulars: for zone of inhibition at 10 µg/mL: read-out: DIZ. A general note: In agar diffusion tests the substance spreads into inoculated agar from a disc or well.
For assay [2], the system named is Geobacillus stearothermophilus. The assay is described as follows: Antibacterial activity against Bacillus stearothermophilus MTCC 8508 at 50 ug/mL by agar well diffusion method. Particulars: for zone of inhibition at 50 µg/mL: read-out: DIZ.
For assay [3], the system named is Geobacillus stearothermophilus. The assay is described as follows: Antibacterial activity against Bacillus stearothermophilus MTCC 8508 after 24 hrs. Conditions: MTCC 8508, 24 h.
Assay [4] deals with Geobacillus stearothermophilus. Kind of assay: Antibacterial activity against Bacillus stearothermophilus MTCC 8508 at 100 ug/mL by agar well diffusion method. Conditions: read-out: DIZ.
Assay [5] has as its system Pseudomonas putida. Kind of assay: Antibacterial activity against Pseudomonas putida MTCC 121 at 50 ug/mL by agar well diffusion method. Conditions: read-out: DIZ.
Assay [6] deals with Pseudomonas putida. The assay is described as follows: Antibacterial activity against Pseudomonas putida MTCC 121 after 24 hrs. Conditions: MTCC 121, 24 h.
Assay [7] concerns Escherichia coli. The assay is described as follows: Antibacterial activity against Escherichia coli MTCC 51 after 24 hrs. Conditions: MTCC 51, 24 h.
The subject of assay [8] is Bacillus subtilis. The assay is described as follows: Antibacterial activity against Bacillus subtilis MTCC 8509 at 100 ug/mL by agar well diffusion method. Particulars: read-out: DIZ.
Assay [9] has as its system Escherichia coli. Kind of assay: Antibacterial activity against Escherichia coli MTCC 51 at 50 ug/mL by agar well diffusion method. Conditions: for zone of inhibition at 50 µg/mL: read-out: DIZ.
Assay [10] deals with Bacillus subtilis. The assay is described as follows: Antibacterial activity against Bacillus subtilis MTCC 8509 after 24 hrs. Particulars: MTCC 8509, 24 h.
Assay [11] deals with Bacillus subtilis. Kind of assay: Antibacterial activity against Bacillus subtilis MTCC 8509 at 50 ug/mL by agar well diffusion method. Conditions: for zone of inhibition at 50 µg/mL: read-out: DIZ.
Assay [12] deals with Pseudomonas putida. Kind of assay: Antibacterial activity against Pseudomonas putida MTCC 121 at 100 ug/mL by agar well diffusion method. Conditions: read-out: DIZ.
The subject of assay [13] is Escherichia coli. Kind of assay: Antibacterial activity against Escherichia coli MTCC 51 at 10 ug/mL by agar well diffusion method. Conditions: for zone of inhibition at 10 µg/mL: read-out: DIZ.
Assay [14] has as its system Escherichia coli. The assay is described as follows: Antibacterial activity against Escherichia coli MTCC 51 at 100 ug/mL by agar well diffusion method. Particulars: read-out: DIZ.
For assay [15], the system named is Geobacillus stearothermophilus. Kind of assay: Antibacterial activity against Bacillus stearothermophilus MTCC 8508 at 10 ug/mL by agar well diffusion method. Particulars: for zone of inhibition at 10 µg/mL: read-out: DIZ.
Assay [16] has as its system Pseudomonas putida. Kind of assay: Antibacterial activity against Pseudomonas putida MTCC 121 at 10 ug/mL by agar well diffusion method. Conditions: for zone of inhibition at 10 µg/mL: read-out: DIZ.

Consider `Cc1cc2nnc(-c3ccccc3)n2c(C)n1`, for which the outcome in [1], in [2], in assay [9], in [13], in assay [15] and in assay [16] was inactive. Further, the MIC in assay [3], in assay [6], in assay [7] and in assay [10] was greater than 250 mg/L each time. Further, the zone of inhibition at 100 µg/mL in assay [4] worked out at 10.7 mm; in assay [8], 13.3 mm; in assay [12], 12.7 mm; in [14], 11.3 mm. The figures for the zone of inhibition at 50 µg/mL in assay [5] and in assay [11] were 8.33 mm and 8.34 mm, respectively.
For the compound `Cc1cc2nnc(-c3ccc(Cl)cc3)n2c(C)n1`, the outcome in assay [1], in assay [9], in assay [11], in [13], in assay [15] and in assay [16] was inactive. The zone of inhibition at 50 µg/mL in assay [2] worked out at 11.8 mm; in [5] it was 8.33 mm. Also, the MIC in [3] is 125 mg/L (≈ 483 µM); in [6], greater than 250 mg/L; in [7], greater than 250 mg/L; in [10], greater than 250 mg/L. Besides, the zone of inhibition at 100 µg/mL in assay [4] stood at 18.7 mm; in assay [8], 11.3 mm; in [12], 14.6 mm; in assay [14], 10.7 mm.
`O=C(N[C@H](CO)[C@H](O)c1ccc([N+](=O)[O-])cc1)C(Cl)Cl` [CHLORAMPHENICOL]: the zone of inhibition at 10 µg/mL stood at 36.3 mm in assay [1], 30.3 mm in assay [13], 35.3 mm in [15] and 29.3 mm in [16]. The zone of inhibition at 50 µg/mL in assay [2] came to 53.2 mm; in assay [5], 53.4 mm; in assay [9], 50.4 mm; in [11], 57.2 mm. Also, the MIC in [3] worked out at 2 mg/L (≈ 6.19 µM); in [6], 2 mg/L (≈ 6.19 µM); in assay [7] it was 4 mg/L (≈ 12.4 µM); in assay [10], 2 mg/L (≈ 6.19 µM). Further, the zone of inhibition at 100 µg/mL in assay [4] was 77.2 mm; in assay [8] it was 74.2 mm; in assay [12] it was 71.2 mm; in [14], 75.4 mm.
Turning to `Cc1cc2nnc(-c3ccc(Br)cc3)n2c(C)n1`, the zone of inhibition at 10 µg/mL in [1] came to 27.7 mm; in [13], 23.3 mm; in assay [15], 26.7 mm; in assay [16] it was 28.3 mm. The zone of inhibition at 50 µg/mL in assay [2] is 41.7 mm; in assay [5] it was 48.7 mm; in assay [9], 31.7 mm; in assay [11], 40.7 mm. Moreover, the minimal inhibitory concentration (MIC) turned out to be 8 mg/L (≈ 26.4 µM) in assay [3], 4 mg/L (≈ 13.2 µM) in assay [6], 16 mg/L (≈ 52.8 µM) in assay [7] and 8 mg/L (≈ 26.4 µM) in assay [10]. Besides, the zone of inhibition at 100 µg/mL was determined as 60.7 mm in [4], 59.3 mm in assay [8], 66.7 mm in assay [12] and 47.3 mm in [14].
Consider `Cc1cc2nnc(-c3cccs3)n2c(C)n1`, for which the result in assay [1] and in assay [16] was inactive. Moreover, the zone of inhibition at 50 µg/mL in [2] is 16.7 mm; in assay [5], 8.33 mm; in assay [9], 18.7 mm; in assay [11], 8.34 mm. Moreover, the minimum inhibitory concentration (MIC) in [3] is 64 mg/L (≈ 278 µM); in [6] it was greater than 250 mg/L; in [7], 64 mg/L (≈ 278 µM); in assay [10] it was greater than 250 mg/L. Besides, the zone of inhibition at 100 µg/mL in [4] came out at 25.7 mm; in assay [8], 13.7 mm; in assay [12], 12.3 mm; in assay [14], 26.3 mm. In addition, the values for the zone of inhibition at 10 µg/mL in [13] and in [15] were 10.3 mm and 9.74 mm, respectively.
With `Cc1ccc(-c2nnc3cc(C)nc(C)n23)cc1`, the zone of inhibition at 10 µg/mL turned out to be 12.3 mm in assay [1], 11.7 mm in assay [13], 9.74 mm in assay [15] and 26.7 mm in assay [16]. In addition, the zone of inhibition at 50 µg/mL amounted to 19.7 mm in assay [2], 40.3 mm in [5], 22.2 mm in assay [9] and 21.3 mm in [11]. The MIC in assay [3] amounted to 32 mg/L (≈ 134 µM); in assay [6] it was 8 mg/L (≈ 33.6 µM); in assay [7], 16 mg/L (≈ 67.1 µM); in [10] it was 16 mg/L (≈ 67.1 µM). For the same compound, the zone of inhibition at 100 µg/mL in [4] turned out to be 30.3 mm; in [8], 42.1 mm; in assay [12] it was 59.7 mm; in assay [14] it was 40.2 mm.
Turning to `Cc1cc2nnc(-c3ccc([N+](=O)[O-])cc3)n2c(C)n1`, the result in assay [1], in assay [13], in assay [15] and in [16] was inactive. Besides, the zone of inhibition at 50 µg/mL in assay [2] came to 10.3 mm; in assay [5] it was 12.3 mm; in assay [9], 8.33 mm; in assay [11] it was 9.66 mm. In addition, the MIC is greater than 250 mg/L in [3], 125 mg/L (≈ 464 µM) in [6], 250 mg/L (≈ 928 µM) in [7] and 250 mg/L (≈ 928 µM) in [10]. The zone of inhibition at 100 µg/mL in [4] stood at 16.7 mm; in assay [8], 14.3 mm; in [12], 19.7 mm; in assay [14] it was 13.7 mm.
On to `COc1ccc(-c2nnc3cc(C)nc(C)n23)cc1`, for which the zone of inhibition at 10 µg/mL in [1] turned out to be 27.3 mm; in assay [13], 12.3 mm; in [15], 12.3 mm; in assay [16] it was 11.7 mm. Further, the zone of inhibition at 50 µg/mL in [2] was found to be 20.7 mm; in assay [5], 20.3 mm; in [9] it was 21.3 mm; in assay [11], 39.7 mm. In addition, the MIC in assay [3] is 16 mg/L (≈ 62.9 µM); in [6], 16 mg/L (≈ 62.9 µM); in [7], 16 mg/L (≈ 62.9 µM); in [10], 8 mg/L (≈ 31.5 µM). Also, the zone of inhibition at 100 µg/mL was 41.3 mm in [4], 59.7 mm in assay [8], 40.7 mm in [12] and 40.7 mm in [14].
For `COc1ccc(OC)c(-c2nnc3cc(C)nc(C)n23)c1`, the result in assay [1], in [11], in assay [13], in assay [15] and in assay [16] was inactive. The zone of inhibition at 50 µg/mL was determined as 8.33 mm in assay [2], 9.66 mm in [5] and 10.7 mm in assay [9]. For the same compound, the minimal inhibitory concentration (MIC) in assay [3] is greater than 250 mg/L; in assay [6], greater than 250 mg/L; in [7], 125 mg/L (≈ 440 µM); in assay [10], greater than 250 mg/L. Further, the zone of inhibition at 100 µg/mL in [4] amounted to 13.7 mm; in [8] it was 11.3 mm; in assay [12], 13.7 mm; in [14] it was 19.3 mm.
On to `Cc1cc2nnc(-c3cccnc3)n2c(C)n1`, for which the zone of inhibition at 10 µg/mL in assay [1] is 29.3 mm; in [13] it was 25.7 mm; in assay [15], 25.3 mm; in assay [16] it was 36.7 mm. The zone of inhibition at 50 µg/mL in [2] is 39.7 mm; in assay [5] it was 59.3 mm; in assay [9], 39.3 mm; in [11] it was 46.3 mm. Further, the minimum inhibitory concentration (MIC) in assay [3] was 8 mg/L (≈ 35.5 µM); in assay [6] it was 2 mg/L (≈ 8.88 µM); in assay [7], 8 mg/L (≈ 35.5 µM); in assay [10], 4 mg/L (≈ 17.8 µM). Also, the zone of inhibition at 100 µg/mL in assay [4] turned out to be 56.3 mm; in assay [8] it was 65.7 mm; in assay [12], 69.7 mm; in [14], 57.3 mm.
For the compound `COc1cc(O)ccc1-c1nnc2cc(C)nc(C)n12`, the zone of inhibition at 10 µg/mL in assay [1] came out at 27.3 mm; in assay [13] it was 29.3 mm; in assay [15], 30.7 mm; in assay [16] it was 32.7 mm. Besides, the zone of inhibition at 50 µg/mL in assay [2] amounted to 46.7 mm; in [5], 49.3 mm; in assay [9], 46.3 mm; in assay [11] it was 42.7 mm. Further, the MIC in assay [3] amounted to 4 mg/L (≈ 14.8 µM); in assay [6], 2 mg/L (≈ 7.4 µM); in assay [7], 4 mg/L (≈ 14.8 µM); in assay [10] it was 8 mg/L (≈ 29.6 µM). Further, the zone of inhibition at 100 µg/mL was found to be 66.3 mm in assay [4], 61.7 mm in assay [8], 72.7 mm in assay [12] and 66.7 mm in assay [14].

By MIC is commonly meant the lowest concentration that inhibits growth of the organism.
